Measurements taken from PubChem BioAssay (NCI).
Several values for one entry are separate records, joined by “and”; a condition that tells them apart may be missing. Equal entries are not always repeated.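 Following 48 hours of exposure in 96-well plates, responses at five concentrations were used to interpolate endpoints linearly. The concentration for 50% growth inhibition is given as GI50. TGI denotes the concentration required for complete inhibition of growth.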

What was measured:
Test in all cases: NCI-60 cell line screen, 48 h
UO-31 renal = tested on: UO-31 renal
NCI-H522 lung = tested on: NCI-H522 lung
COLO 205 colon = tested on: COLO 205 colon
SK-OV-3 ovarian = tested on: SK-OV-3 ovarian
IGROV1 ovarian = tested on: IGROV1 ovarian
HOP-92 NSCLC = tested on: HOP-92 NSCLC
SK-MEL-2 melanoma = tested on: SK-MEL-2 melanoma
HL-60(TB) leukemia = tested on: HL-60(TB) leukemia
MCF7 breast = tested on: MCF7 breast
T-47D breast = tested on: T-47D breast

SMILES | TGI (UO-31 renal) | TGI (NCI-H522 lung) | TGI (COLO 205 colon) | TGI (SK-OV-3 ovarian) [µM] | TGI (IGROV1 ovarian) | TGI (HOP-92 NSCLC) | TGI (SK-MEL-2 melanoma) | TGI (HL-60(TB) leukemia) | GI50 (NCI-H522 lung) [µM] | GI50 (UO-31 renal) [µM] | GI50 (COLO 205 colon) [µM] | GI50 (MCF7 breast) [µM] | TGI (MCF7 breast) [µM] | GI50 (SK-OV-3 ovarian) [µM] | GI50 (T-47D breast) [µM] | TGI (T-47D breast) [µM] | GI50 (IGROV1 ovarian) [µM] | GI50 (HL-60(TB) leukemia) [µM] | GI50 (SK-MEL-2 melanoma) [µM] | GI50 (HOP-92 NSCLC) [µM]
COc1c(O)c2c3c(cc(C)cc3c1C(C)C)OC2 | > 100 µM | > 100 µM | > 100 µM | > 100 | > 100 µM | > 100 µM | > 100 µM | > 100 µM | – | – | – | – | – | – | – | – | – | – | – | –
O=[N+]([O-])c1ccc(-n2nnc(C3=NCCN3)c2-c2ccccc2)cc1 | > 100 µM | > 100 µM | > 100 µM | > 100 | > 100 µM | > 100 µM | > 100 µM | > 100 µM | – | – | – | – | – | – | – | – | – | – | – | –
COc1cc2c[n+](C)c3c4cc(OC)c(OC(C)C)cc4ccc3c2cc1OC | > 100 µM | 69.3 µM | 31.2 µM | > 100 | > 100 µM | > 100 µM | 40 µM | 91.9 µM | – | – | – | – | – | – | – | – | – | – | – | –
O=C(O)CC[C@H](NC(=O)c1ccc(-n2nc3ccc(O)cc3nc2=O)cc1)C(=O)O | > 100 µM | > 100 µM | > 100 µM | – | > 100 µM | > 100 µM | > 100 µM | > 100 µM | – | – | – | – | – | – | – | – | – | – | – | –
COc1ccc(/C=C/c2cc(OC)c(OC)c(OC)c2)cc1 | > 100 µM | 40.9 µM | 11 µM | > 94.6 | > 100 µM | > 100 µM | 52.8 µM | – | 14.1 | – | – | – | – | – | – | – | – | – | – | –
N/N=C(/C(=O)Nc1cccc(Cl)c1)C(C(=O)c1ccc(O)cc1O)C1OC(=O)c2ccccc21 (configuration not stated) | > 100 µM | > 100 µM | > 100 µM | > 100 | > 100 µM | – | > 100 µM | > 100 µM | – | – | – | – | – | – | – | – | – | – | – | –
c1cncc(C2N3CCCCC3[C@@H]3c4[nH]c5ccccc5c4CCN23)c1 (some centres not stated) | > 100 µM | – | – | > 100 | > 100 µM | > 100 µM | > 100 µM | > 100 µM | – | – | – | – | – | – | – | – | – | – | – | –
Nc1ncnc2c1N=C(c1ccc3c(c1)OCO3)CC(c1ccc([N+](=O)[O-])cc1)N2 (configuration not stated) | > 100 µM | > 100 µM | > 100 µM | > 100 | 3.24 µM | – | – | > 100 µM | 6.78 | 18.1 | 92 | 31.5 | > 100 | > 100 | 80.7 | > 100 | 0.0684 | 13.1 | – | –
O=C(c1ccc(Cl)cc1Cl)C1[C@H]2C(=O)N(c3ccc(Cc4ccc(N5C(=O)[C@@H]6ON(c7ccccc7)C(C(=O)c7ccc(Cl)cc7Cl)[C@@H]6C5=O)cc4)cc3)C(=O)[C@H]2ON1c1ccccc1 (some centres not stated) | > 50 µM | > 50 µM | > 50 µM | > 50 | > 50 µM | – | > 50 µM | > 50 µM | – | – | – | – | – | – | – | – | – | – | – | –
CCOC(=O)CC[C@H](NC(=O)c1nc[nH]c1[N+](=O)[O-])C(=O)OCC | > 100 µM | > 100 µM | > 100 µM | > 100 | > 100 µM | > 100 µM | > 100 µM | > 100 µM | – | – | – | – | – | – | – | – | – | – | – | –
O=S(=O)(/C=C/c1ccc(F)cc1)Cc1ccc(CS(=O)(=O)/C=C/c2ccc(F)cc2)cc1 | > 100 µM | > 100 µM | > 100 µM | > 100 | > 100 µM | > 100 µM | > 100 µM | > 100 µM | – | – | – | – | – | – | – | – | – | – | – | –
Cc1ccccc1C1OC(=O)c2ccc3ccccc3c21 (configuration not stated) | 10.9 µM | 4.89 µM | 2.28 µM | 8.37 | > 31.6 µM | 49.9 µM | 5.98 µM | 8.01 µM | – | – | – | – | – | – | – | – | – | – | – | –
CCCCCCCCCCCCCCCC(=O)OCC1OC(n2cc(F)c(=O)[nH]c2=O)C(N)C(O)C1O (configuration not stated) | 30.8 µM | 31.7 µM | 34 µM | 45.7 | – | 38.9 µM | – | 37.4 µM | – | – | – | – | – | – | – | – | – | – | – | –
CCCCCCC[CH2][Sn]([CH2]CCCCCCC)([O]c1cccc2cccnc12)[O]c1cccc2cccnc12 | 5.42 µM | 3.86 µM | 3.41 µM | – | 5.26 µM | – | 3.14 µM | – | 0.605 | 2 | 1.86 | – | – | – | – | – | 2.19 | – | 1.61 | –
O=C1C(c2ccccc2)=C(O)c2cccc3cccc1c23 | > 100 µM | > 100 µM | > 100 µM | > 100 | > 100 µM | > 100 µM | > 100 µM | > 100 µM | – | – | – | – | – | – | – | – | – | – | – | –
C[C@@]12CCC(=O)c3coc(c31)C(=O)c1cc3c(cc12)C(=O)C=CC3=O | > 1 µM and 30.9 µM | > 1 µM and 22.1 µM | > 1 µM and 29.7 µM | > 100 | > 1 µM and 59.3 µM | > 1 µM and 19.6 µM | > 1 µM and 45.1 µM | > 1 µM and 5.5 µM | > 1 | > 1 | > 1 | – | – | > 1 | – | – | > 1 | > 1 | > 1 | > 1
COc1ccc2c(c1)C(=O)c1ccc(OC)cc1C2=S | > 100 µM | > 100 µM | > 100 µM | > 100 | > 100 µM | > 100 µM | > 100 µM | > 100 µM | – | – | – | – | – | – | – | – | – | – | – | –
